Laboratory results as given in PMC3602154 (PLoS ONE, 2013).

Columns and labels:
A4B4 = A4B4 (Rattus norvegicus, UniProt P09483+P12392); assay: PDSP radioligand binding, nicotinic receptor α4 ß4
Description: (§1) [17] and http://pdsp.med.unc.edu/UNC-CH%20Protocol%20Book.pdf.

A2B2 = A2B2 (Rattus norvegicus, UniProt P12389+P12390); assay: PDSP radioligand binding, nicotinic receptor α2 ß2
Description: as §1

Alpha2C = target: T1, Alpha2C (Homo sapiens, UniProt P18825); assay: PDSP radioligand binding, adrenoceptor α2C
T1 sequence (P18825 1-462): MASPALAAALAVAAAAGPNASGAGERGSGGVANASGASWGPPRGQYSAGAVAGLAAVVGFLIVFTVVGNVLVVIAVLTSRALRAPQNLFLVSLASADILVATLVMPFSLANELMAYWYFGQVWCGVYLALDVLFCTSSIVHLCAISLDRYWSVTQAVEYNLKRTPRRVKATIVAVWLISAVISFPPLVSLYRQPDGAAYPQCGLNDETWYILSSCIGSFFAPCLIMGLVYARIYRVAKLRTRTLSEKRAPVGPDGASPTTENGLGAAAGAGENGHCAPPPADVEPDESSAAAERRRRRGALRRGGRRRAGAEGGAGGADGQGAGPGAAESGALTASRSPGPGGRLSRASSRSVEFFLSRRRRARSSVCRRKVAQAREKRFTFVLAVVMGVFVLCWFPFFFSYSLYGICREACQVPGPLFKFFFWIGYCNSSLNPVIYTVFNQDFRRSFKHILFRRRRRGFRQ
Description: as §1

D5 = D5 (Homo sapiens, UniProt P21918); assay: PDSP radioligand binding, dopamine receptor D5
Sequence of D5 (P21918 whole entry): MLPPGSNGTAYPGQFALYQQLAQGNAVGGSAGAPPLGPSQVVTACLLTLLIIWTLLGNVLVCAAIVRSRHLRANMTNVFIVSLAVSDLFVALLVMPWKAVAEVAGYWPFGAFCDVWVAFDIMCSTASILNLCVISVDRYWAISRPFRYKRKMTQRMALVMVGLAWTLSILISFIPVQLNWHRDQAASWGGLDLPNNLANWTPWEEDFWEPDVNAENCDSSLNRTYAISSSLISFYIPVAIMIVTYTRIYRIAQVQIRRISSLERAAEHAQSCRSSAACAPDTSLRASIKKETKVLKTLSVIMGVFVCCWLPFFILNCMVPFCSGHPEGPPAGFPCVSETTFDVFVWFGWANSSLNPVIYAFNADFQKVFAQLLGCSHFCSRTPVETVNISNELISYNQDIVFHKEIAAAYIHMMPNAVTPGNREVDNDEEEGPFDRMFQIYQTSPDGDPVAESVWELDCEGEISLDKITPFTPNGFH
Description: as §1

5-HT2C = target: T2, 5-HT2C (Homo sapiens, UniProt P28335); assay: PDSP radioligand binding, serotonin receptor 5-HT2C
T2 sequence (P28335 33-458): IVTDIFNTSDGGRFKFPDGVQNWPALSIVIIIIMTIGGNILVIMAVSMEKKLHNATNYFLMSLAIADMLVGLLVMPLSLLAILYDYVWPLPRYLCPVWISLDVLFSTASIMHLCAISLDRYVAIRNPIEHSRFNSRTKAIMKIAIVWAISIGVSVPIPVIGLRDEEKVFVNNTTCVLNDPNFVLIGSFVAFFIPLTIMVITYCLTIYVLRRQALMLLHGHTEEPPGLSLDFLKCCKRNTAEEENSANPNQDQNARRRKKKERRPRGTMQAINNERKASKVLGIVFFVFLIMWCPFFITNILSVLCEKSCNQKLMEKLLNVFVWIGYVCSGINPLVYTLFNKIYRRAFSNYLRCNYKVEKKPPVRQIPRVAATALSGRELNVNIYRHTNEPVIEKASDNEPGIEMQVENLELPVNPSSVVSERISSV
Description: as §1

MOR = MOR (Homo sapiens, UniProt P35372); assay: PDSP radioligand binding, opioid receptor MOR
Sequence of MOR (P35372 whole entry): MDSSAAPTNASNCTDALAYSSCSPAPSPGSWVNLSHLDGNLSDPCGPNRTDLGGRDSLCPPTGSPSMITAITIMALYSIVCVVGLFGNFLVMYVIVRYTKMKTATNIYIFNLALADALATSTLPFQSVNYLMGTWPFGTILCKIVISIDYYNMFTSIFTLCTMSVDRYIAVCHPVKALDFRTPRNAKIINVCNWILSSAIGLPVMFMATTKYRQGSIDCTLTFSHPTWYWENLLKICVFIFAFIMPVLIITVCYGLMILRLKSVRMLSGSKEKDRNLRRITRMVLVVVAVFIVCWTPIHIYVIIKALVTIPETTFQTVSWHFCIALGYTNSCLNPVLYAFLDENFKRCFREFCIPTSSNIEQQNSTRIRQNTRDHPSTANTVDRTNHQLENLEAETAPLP
Description: as §1

M4 = target: T3, M4 (Homo sapiens, UniProt P08173); assay: PDSP radioligand binding, muscarinic receptor M4
T3 sequence (P08173 1-479): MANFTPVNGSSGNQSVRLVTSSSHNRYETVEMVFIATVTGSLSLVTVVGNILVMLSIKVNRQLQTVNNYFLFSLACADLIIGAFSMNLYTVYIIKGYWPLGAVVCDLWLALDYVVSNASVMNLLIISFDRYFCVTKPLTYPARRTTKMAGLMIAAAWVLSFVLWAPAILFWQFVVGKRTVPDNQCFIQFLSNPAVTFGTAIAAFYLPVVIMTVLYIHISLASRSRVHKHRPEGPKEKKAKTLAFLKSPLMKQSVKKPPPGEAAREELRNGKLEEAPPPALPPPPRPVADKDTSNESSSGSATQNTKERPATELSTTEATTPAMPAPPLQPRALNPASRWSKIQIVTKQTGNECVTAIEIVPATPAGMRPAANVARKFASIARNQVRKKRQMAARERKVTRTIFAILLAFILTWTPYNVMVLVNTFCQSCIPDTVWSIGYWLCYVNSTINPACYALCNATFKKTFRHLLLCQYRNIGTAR
Description: as §1

5-HT2B = 5-HT2B (Homo sapiens, UniProt P41595); assay: PDSP radioligand binding, serotonin receptor 5-HT2B
Sequence of 5-HT2B (P41595 whole entry, species assumed): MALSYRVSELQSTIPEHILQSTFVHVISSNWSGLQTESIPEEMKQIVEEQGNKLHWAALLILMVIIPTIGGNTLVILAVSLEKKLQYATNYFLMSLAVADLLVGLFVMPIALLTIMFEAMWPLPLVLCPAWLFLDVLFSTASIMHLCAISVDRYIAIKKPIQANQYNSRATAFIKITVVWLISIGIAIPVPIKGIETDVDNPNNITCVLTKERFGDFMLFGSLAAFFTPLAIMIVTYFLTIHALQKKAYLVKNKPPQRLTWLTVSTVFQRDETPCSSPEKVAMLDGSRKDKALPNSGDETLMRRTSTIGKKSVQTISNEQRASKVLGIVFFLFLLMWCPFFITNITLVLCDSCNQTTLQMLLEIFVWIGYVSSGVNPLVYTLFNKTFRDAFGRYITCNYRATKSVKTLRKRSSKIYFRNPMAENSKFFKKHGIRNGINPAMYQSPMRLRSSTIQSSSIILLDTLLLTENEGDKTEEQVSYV
Description: as §1

M1 = target: T4, M1 (Homo sapiens, UniProt P11229); assay: PDSP radioligand binding, muscarinic receptor M1
T4 sequence (P11229 1-460): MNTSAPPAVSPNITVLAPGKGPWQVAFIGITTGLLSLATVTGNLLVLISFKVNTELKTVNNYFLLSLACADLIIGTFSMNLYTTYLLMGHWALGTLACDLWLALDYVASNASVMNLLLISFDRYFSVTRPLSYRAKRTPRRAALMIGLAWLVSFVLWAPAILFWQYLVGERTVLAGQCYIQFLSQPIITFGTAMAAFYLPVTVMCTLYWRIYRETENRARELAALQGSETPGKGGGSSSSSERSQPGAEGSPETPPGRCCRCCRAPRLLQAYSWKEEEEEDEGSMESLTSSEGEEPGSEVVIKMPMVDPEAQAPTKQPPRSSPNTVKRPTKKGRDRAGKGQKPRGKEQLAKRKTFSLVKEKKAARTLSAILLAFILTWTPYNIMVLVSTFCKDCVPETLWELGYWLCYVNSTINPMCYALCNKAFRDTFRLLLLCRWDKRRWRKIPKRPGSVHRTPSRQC
Description: as §1

5-HT7 = 5-HT7 (Homo sapiens, UniProt P34969); assay: PDSP radioligand binding, serotonin receptor 5-HT7
Sequence of 5-HT7 (P34969 whole entry, species assumed): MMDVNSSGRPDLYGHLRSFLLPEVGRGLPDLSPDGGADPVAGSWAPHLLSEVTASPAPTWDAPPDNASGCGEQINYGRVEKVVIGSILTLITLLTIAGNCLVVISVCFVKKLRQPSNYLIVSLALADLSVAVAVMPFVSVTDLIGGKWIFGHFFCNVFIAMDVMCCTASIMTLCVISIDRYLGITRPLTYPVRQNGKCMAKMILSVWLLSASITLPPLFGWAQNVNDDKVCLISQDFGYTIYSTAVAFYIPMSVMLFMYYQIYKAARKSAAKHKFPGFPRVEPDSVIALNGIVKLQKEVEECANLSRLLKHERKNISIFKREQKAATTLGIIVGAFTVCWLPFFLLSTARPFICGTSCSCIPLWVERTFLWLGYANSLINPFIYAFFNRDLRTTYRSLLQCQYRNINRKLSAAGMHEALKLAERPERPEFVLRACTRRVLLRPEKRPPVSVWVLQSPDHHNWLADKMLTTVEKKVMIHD
Description: as §1

BZP Rat Brain Site = assay: PDSP radioligand binding, benzodiazepine site on GABA-A; conditions: Table S1; unit inferred
Description: as §1

Alpha1A = target: T5, Alpha1A (Homo sapiens, UniProt P35348); assay: PDSP radioligand binding, adrenoceptor α1A
T5 sequence (P35348 1-466): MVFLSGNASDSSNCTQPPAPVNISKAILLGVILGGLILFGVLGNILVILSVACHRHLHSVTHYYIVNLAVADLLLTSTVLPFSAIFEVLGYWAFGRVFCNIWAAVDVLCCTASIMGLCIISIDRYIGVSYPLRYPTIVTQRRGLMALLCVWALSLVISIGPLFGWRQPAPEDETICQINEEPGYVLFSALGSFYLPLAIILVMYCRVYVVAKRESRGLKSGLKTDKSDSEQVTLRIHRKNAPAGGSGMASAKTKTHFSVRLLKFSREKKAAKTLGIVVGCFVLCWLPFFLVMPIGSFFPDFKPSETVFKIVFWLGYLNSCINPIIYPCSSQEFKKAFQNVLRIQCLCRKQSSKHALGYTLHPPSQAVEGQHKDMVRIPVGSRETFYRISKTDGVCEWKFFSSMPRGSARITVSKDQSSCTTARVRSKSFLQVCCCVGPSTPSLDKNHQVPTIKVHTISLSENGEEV
Description: as §1

Beta1 = Beta1 (Homo sapiens, UniProt P08588); assay: PDSP radioligand binding, adrenoceptor ß1
Sequence of Beta1 (P08588 whole entry): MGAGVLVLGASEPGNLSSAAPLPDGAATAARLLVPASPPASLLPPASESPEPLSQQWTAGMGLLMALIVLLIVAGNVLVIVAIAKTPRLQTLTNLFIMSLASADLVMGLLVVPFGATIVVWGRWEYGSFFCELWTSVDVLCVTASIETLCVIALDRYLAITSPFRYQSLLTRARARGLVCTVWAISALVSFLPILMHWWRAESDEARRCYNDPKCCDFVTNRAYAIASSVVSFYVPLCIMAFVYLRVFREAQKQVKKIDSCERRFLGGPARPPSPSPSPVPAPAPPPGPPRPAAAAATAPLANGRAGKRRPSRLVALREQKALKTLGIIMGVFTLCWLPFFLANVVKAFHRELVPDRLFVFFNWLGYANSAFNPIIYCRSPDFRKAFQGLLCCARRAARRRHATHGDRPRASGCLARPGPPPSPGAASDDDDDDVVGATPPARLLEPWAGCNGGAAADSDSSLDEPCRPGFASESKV
Description: as §1

hDAT = hDAT (Homo sapiens, UniProt Q01959); assay: PDSP radioligand binding, dopamine transporter
Sequence of hDAT (Q01959 whole entry): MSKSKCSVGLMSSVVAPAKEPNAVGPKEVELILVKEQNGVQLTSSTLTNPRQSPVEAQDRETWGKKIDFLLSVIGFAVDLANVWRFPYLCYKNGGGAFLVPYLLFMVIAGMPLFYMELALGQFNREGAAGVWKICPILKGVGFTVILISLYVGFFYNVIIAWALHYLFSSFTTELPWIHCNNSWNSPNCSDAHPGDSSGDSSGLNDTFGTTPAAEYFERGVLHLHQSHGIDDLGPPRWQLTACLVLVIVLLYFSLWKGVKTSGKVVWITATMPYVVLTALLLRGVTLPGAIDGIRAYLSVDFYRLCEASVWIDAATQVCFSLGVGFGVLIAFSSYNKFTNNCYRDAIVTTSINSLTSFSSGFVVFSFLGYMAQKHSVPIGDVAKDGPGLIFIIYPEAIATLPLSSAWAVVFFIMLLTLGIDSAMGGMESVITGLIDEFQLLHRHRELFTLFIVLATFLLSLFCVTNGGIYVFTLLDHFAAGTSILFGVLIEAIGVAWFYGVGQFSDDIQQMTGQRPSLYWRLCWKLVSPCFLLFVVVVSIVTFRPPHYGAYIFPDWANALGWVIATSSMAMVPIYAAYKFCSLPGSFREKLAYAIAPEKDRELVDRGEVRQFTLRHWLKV
Description: as §1

Sequence of A2B2 (P12389 28-511): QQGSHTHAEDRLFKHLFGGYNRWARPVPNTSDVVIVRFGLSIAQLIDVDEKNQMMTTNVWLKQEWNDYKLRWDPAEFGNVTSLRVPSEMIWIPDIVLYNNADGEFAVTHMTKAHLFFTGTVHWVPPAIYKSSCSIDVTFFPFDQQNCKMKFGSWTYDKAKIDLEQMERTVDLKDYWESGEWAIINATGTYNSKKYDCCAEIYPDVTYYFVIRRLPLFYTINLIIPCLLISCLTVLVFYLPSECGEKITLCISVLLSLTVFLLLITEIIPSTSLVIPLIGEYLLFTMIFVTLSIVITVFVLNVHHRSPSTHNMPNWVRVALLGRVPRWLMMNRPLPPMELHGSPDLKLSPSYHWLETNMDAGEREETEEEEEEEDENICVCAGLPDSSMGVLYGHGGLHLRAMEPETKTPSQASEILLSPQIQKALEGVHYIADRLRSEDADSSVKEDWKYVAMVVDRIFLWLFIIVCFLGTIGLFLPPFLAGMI
Sequence of A2B2 (P12390 25-500): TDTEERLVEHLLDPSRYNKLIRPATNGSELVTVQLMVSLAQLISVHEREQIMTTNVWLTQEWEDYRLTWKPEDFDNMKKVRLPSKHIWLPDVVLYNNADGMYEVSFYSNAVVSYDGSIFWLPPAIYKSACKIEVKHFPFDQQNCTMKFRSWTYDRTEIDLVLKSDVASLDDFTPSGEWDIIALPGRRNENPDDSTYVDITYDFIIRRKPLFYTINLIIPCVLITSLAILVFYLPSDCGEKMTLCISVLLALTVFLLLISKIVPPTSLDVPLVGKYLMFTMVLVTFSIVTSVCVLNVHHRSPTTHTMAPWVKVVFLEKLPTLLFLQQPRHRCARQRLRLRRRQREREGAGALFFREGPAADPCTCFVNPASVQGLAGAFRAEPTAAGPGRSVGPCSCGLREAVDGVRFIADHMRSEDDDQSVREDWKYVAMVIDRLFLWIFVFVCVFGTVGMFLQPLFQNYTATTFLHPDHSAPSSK
Sequence of A4B4 (P09483 31-630): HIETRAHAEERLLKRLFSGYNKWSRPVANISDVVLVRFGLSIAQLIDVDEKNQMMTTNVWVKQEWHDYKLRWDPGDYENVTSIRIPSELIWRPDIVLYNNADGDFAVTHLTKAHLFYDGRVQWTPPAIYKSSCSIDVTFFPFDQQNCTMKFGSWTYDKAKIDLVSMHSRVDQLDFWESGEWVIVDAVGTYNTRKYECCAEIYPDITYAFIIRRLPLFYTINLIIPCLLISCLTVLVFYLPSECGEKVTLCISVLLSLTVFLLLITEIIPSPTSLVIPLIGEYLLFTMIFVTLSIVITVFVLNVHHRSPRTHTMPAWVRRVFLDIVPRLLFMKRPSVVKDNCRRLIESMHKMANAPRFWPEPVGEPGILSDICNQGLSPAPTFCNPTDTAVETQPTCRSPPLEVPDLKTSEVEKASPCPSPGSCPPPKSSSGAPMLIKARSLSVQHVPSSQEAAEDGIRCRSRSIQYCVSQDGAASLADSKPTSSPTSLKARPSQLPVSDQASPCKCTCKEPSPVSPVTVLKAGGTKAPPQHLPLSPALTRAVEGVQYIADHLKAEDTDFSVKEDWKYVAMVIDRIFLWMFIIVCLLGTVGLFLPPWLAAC
Sequence of A4B4 (P12392 21-495): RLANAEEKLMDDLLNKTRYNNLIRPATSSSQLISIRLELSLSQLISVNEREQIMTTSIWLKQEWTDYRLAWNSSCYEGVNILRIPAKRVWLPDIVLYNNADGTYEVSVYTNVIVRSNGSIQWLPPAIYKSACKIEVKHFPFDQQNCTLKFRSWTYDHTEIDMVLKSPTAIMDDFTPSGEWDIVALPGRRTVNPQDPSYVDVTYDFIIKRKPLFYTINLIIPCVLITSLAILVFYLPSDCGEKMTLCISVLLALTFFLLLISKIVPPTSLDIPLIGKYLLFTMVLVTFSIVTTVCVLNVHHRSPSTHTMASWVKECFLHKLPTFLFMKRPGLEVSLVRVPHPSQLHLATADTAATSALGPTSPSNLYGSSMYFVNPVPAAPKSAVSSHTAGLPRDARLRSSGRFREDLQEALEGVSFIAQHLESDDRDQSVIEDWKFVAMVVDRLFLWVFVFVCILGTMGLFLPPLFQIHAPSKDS

Row | Compound | Ki (A4B4) [µM] | Ki (A2B2) [µM] | Ki (Alpha2C) [µM] | Ki (D5) [µM] | Ki (5-HT2C) [µM] | Ki (MOR) [µM] | Ki (M4) [µM] | Ki (5-HT2B) [µM] | Ki (M1) [µM] | Ki (5-HT7) [µM] | Ki (BZP Rat Brain Site) [µM] | Ki (Alpha1A) [µM] | Ki (Beta1) [µM] | Ki (hDAT) [µM]
1 | CCNC1(c2cccc(OC)c2)CCCCC1=O (racemic) [Methoxetamine, (RS)-2-(ethylamino)-2-(3-methoxyphenyl)cyclohexanone] | > 10 | > 10 | > 10 | > 10 | > 10 | > 10 | > 10 | > 10 | > 10 | > 10 | > 10 | > 10 | > 10 | > 10
2 | COc1cccc(C2(N3CCCCC3)CCCCC2)c1 [3-MeO-PCP, 1-[1-(3-methoxyphenyl)cyclohexyl]piperidine] | > 10 | > 10 | > 10 | > 10 | > 10 | > 10 | > 10 | > 10 | > 10 | > 10 | > 10 | > 10 | > 10 | 0.743
3 | COc1ccc(C2(N3CCCCC3)CCCCC2)cc1 [4-MeO-PCP, 1-[1-(4-methoxyphenyl)cyclohexyl]piperidine] | > 10 | > 10 | > 10 | > 10 | > 10 | > 10 | > 10 | > 10 | > 10 | > 10 | > 10 | > 10 | > 10 | > 10
